According to patent US20120213789A1, “New Molecular Target for Treatment of Cancer” (priority 2001, published 2012):

How the values were obtained:
Format in all cases: cell-based, human
LNCaP Prostate Cell Line = test: Dual label UC28/AnnexinV flow cytometry after SPB treatment; conditions: for Total AnnexV / Total UC28C: 72 hours, UC28-GAR-CY5/AnnexV-FITC
Description: (§1) Cells were grown to 70-80% confluence at 37° C. and 5% CO2 in T-75 tissue culture plastic flasks. SPB stock solution was added to final concentrations of 0.5, 5.0, 10.0, and 25.0 mM in appropriate fresh media to the cell cultures. Cells were incubated at 37° C. and 5% CO2 for 72 hours. Attached cells were then harvested using a solution of 0.05% trypsin and 0.53 mM EDTA (Invitrogen Corp.). Attached cells were then pooled with any the detached cells and washed with PBS pH 7.2. Cell numbers and percent viability were determined using Trypan blue dye exclusion and a hemacytometer. At the time of their use in an experiment the viability was usually about 85% for untreated cells and a range of about 15-70% for treated cells, with the lower viabilities found at higher SPB concentrations (Thompson C, 1995; Cory et al., 1998; van Engeland et al., 1996).
(§2) VO1 Apoptosis Detection Kit contains: (1) Fluorocein-isothiocyante (FITC) conjugated AnnexinV [AnnexinV01] 1 ml (2) Propidium Iodide [Annex-Pi] 2.0 ml (3) 4× Binding Buffer [Annex-B] 20.0 ml. Vendor is CalTag Laboratories, Inc., 1849 Bayshore Boulevard #200 Burlingame, Calif. 94010.
(§3) UC28(C) is 2.14 mg/ml rabbit polyclonal aliquot directed against the inventors' UC28 patented biomarker developed by UCor R&D gene discovery program. The Antibody was produced against a twenty amino acid (AA) synthetic peptide from the predicted AA sequence (AA 21-37) UCor, Inc. 840 Research Parkway Oklahoma City, Okla. 73104.
(§4) Goat Anti-Rabbit CY5 polyclonal Fluorchrome was used as the secondary conjugate for UC28 C rabbit polyclonal antibody and a background control for UC28 C polyclonal. Vendor is Jackson ImmunoResearch Laboratories, Inc. 872 West Baltimore Pike, P.O. Box 9 West Grove, Pa. 19390.
(§5) MsIgG-FITC mouse conjugated-FITC was used for background control for AnnexinV01. Vendor is Becicman Coulter, Inc. Diagnostic Division, 11800 SW 147th Ave. M/S 42-003, P.O. Box 169015, Miami, Floridia 33116-9015.
(§6) A Coulter Elite engineered with a triple laser system was used to analyze all samples. Coulter control beads were used to align lasers for the dual label testing of cell samples. Laser alignment was required for both the Argon (488 nm line) laser and HeNe (633 nm line) laser. These alignments were performed prior to all measurements with the Argon laser (488 nm line) using fluorophores for FITC, RPE, PI and the HeNe laser (633 nm line) for the Cy5 fluorophores being used for the experiments described below. The histographs, voltage settings, gates, color compensation, and pressures were established prior to all sample processing. […]
(§7) UC28 and Annexin V were co-labeled in the three cell lines to assess the induction of UC28 by SPB and its correlation to the induction of apoptosis. […] It may be noted that in previously published experiments, AnnexinV and PI were run in combination with several prostate cancer cell lines, one of which was LNCaP, but not with C4-2B or MLC-SV40. It was determined that they produced similar dose-response kinetics when exposed to 0.5-25 mM of SPB for 72 hours (Ng et al., 1989). That is, as the dose of SPB increased, so did the membrane perturbation events measured by these two methods.

C4-2B Prostate Cell Line = test: Dual label UC28 C/AnnexinV flow cytometry after SPB treatment; conditions: for Total AnnexV / Total UC28C: 72 hours, UC28-GAR-CY5/AnnexV-FITC
Description: as §1, §2, §3, §4, §5, §6, §7

[1] = system: C4-2B Metastatic Prostate Cell Line; test: UROC28/Bcl-2 label flow cytometry after SPB treatment; conditions: for Total Bcl-2 / Total UC2BC: section UROC28/Bcl-2
Description: as §1, §3, §4
Bc12 IgG1 kappa-FITC isomer 1 is a purified monoclonal mouse specific for Bc1-2 protein. Vendor is Dalco Corporation 6392 Via Real, Carpinteria, Calif. 93013 USA.
MsIgG1 kappa-FITC isomer 1 is a purified isotype specific control for Bc1-2 monoclonal antibody. Vendor is Dako Corporation 6392 Via Real, Carpinteria, Calif. 93013 USA.
Cytofix/Cytoperm™ ICit enables fixation and permeabilization of cells prior to staining with fluorochrome-conjugated antibodies. Vendor is BD-PharMingen, 10975 Torreyana Road, San Diego, Calif. 92121-1106.
A Coulter Elite engineered with a triple laser system was used to analyze all samples. Coulter control beads were used to align lasers for the dual label testing of cell samples. Laser alignment was required for both the Argon (488 nm line) laser and HeNe (633 nm line) laser. These alignments were performed prior to all measurements with the Argon laser (488 nm line) using fluorophores for FITC, RPE, PI and the HeNe laser (633 nm line) for the Cy5 fluorophores being used for the experiments described below. The histographs, voltage settings, gates, color compensation, and pressures were established prior to all sample processing.
(a) Tissue culture cells (MLC-SV40, LNCaP and C 4-2B) were aliquoted at concentration of 1×10^6 per teach 12×75 mm polystyrene tube. Label tubes as follows: • (i) No Antibody • (ii) Secondary GAR-CY5 polyclonal=(control for UC28 CIDGARCY5 polyclonal) vs MsIgG1-RPE (control for FAS-RPE monoclonal) • (iii) UC28 C-IDGARCY5 polyclonal vs FAS (CD45)—RPE monoclonal • (iv) SecondaryGAR-CY5 polyclonal=(control for UC28 C-IDGARCY5 polyclonal) vs MsIgG1-FITC (control for Bc12-FITC monoclonal) • (v) UC28 C-IDGARCY5 polyclonal vs Bc12-FITC monoclonal • (vi) UC28 C-IDGARCY5 Polyclonal=(single label for checking instrument after setting Coulter Elite flow cytometer for dual analysis using the three different fluorchromes.) • (vii) FAS ([…])—RPE monoclonal=(single label for checking instrument after setting Coulter Elite flow cytometer for dual analysis using the three different fluorchromes.) • (viii) Bc12-FITC monoclonal=(single label for checking instrument after setting Coulter Elite flow cytometer for dual analysis using the three different fluorchromes.)
(c) A volume of 100 μl of UC28 C rabbit polyclonal unconjugated antibody was added to the appropriately labeled tubes. All other tubes received 100 μl PBS (pH7.3) and all tubes were incubated at room temp in the dark for 1 hour. […]

For `O=C([O-])CCCc1ccccc1.[Na+]` [SPB, 4-Phenylbutyric Acid, Sodium Salt], the “Total AnnexV” value (LNCaP Prostate Cell Line; 0.5 mM SPB) was 10.6%, the “Total UC28C” value (LNCaP Prostate Cell Line; 0.5 mM SPB) was 28.0% and the “Total AnnexV” value (LNCaP Prostate Cell Line; 5.0 mM SPB) was 44.7%. The “Total UC28C” value (LNCaP Prostate Cell Line; 5.0 mM SPB) was 55.8%, the “Total AnnexV” value (LNCaP Prostate Cell Line; 10 mM SPB) was 33.6% and the “Total UC28C” value (LNCaP Prostate Cell Line; 10 mM SPB) was 66.4%. For the same compound, the “Total AnnexV” value (LNCaP Prostate Cell Line; 25 mM SPB) was 89.2%, the “Total UC28C” value (LNCaP Prostate Cell Line; 25 mM SPB) was 67.4% and the UC28 up regulation (LNCaP Prostate Cell Line; SPB, summary of Table 5) was “up regulated”. For the same compound, the induction of apoptosis (LNCaP Prostate Cell Line; SPB, summary of Table 5) was “induced”, the “Total AnnexV” value (C4-2B Prostate Cell Line; 0.5 mM SPB) was 41.1% and the “Total UC28C” value (C4-2B Prostate Cell Line; 0.5 mM SPB) was 29.8%. The “Total AnnexV” value (C4-2B Prostate Cell Line; 5.0 mM SPB) was 94.0%, the “Total UC28C” value (C4-2B Prostate Cell Line; 5.0 mM SPB) was 81.8% and the “Total AnnexV” value (C4-2B Prostate Cell Line; 10 mM SPB) was 80.0%. For the same compound, the “Total UC28C” value (C4-2B Prostate Cell Line; 10 mM SPB) was 88.0%, the “Total AnnexV” value (C4-2B Prostate Cell Line; 25 mM SPB) was 82.3% and the “Total UC28C” value (C4-2B Prostate Cell Line; 25 mM SPB) was 96.5%. The UC28 up regulation (C4-2B Prostate Cell Line; SPB, summary of Table 5) was “up regulated”, the induction of apoptosis (C4-2B Prostate Cell Line; SPB, summary of Table 5) was “induced” and the “Total Bcl-2” value ([1]; 5.0 mM SPB) was 5.4%. The “Total UC2BC” value ([1]; 5.0 mM SPB) was 96.0%, the “Total Bcl-2” value ([1]; 10 mM SPB) was 0.3% and the “Total UC2BC” value ([1]; 10 mM SPB) was 93.9%. For the same compound, the Bc1-2 protein expression ([1]; SPB, summary of Table 7) was “markedly depressed” and the UC28 expression ([1]; SPB, summary of Table 7) was “significantly up regulated”.
